In patent US7553929B2, “Cell permeable peptides for inhibition of inflammatory reactions and methods of use” (Vanderbilt University, priority 1994, dated 2009):
Read-outs that look alike come from different tables or passages of the source. Bridges are numbered along the chain shown (N, C = ends). Where no end group is shown, it is not given here.

How the values were obtained:
[1] = test system: rodent endothelial cell line (LE-II); assay: Indirect immunofluorescence assay of peptide import, LE-II cells; assay type: cell-based
NF-κB [2] = assay type: cell-based, murine; details: J774, LPS 10 ng/ml, peptide 31 μM (Example II)
rabbits = assay: Localized Shwartzman reaction (LPS-induced skin inflammatory reaction) in rabbits; assay type: in vivo, rabbit; details: intradermal application prior to the second LPS injection
NF-κB complex = details: for Inducible nuclear import of NF-κB, LPS / Inducible nuclear import of NF-κB, TNFα: LEII
NIH 3T3 cells [3] = assay: Cytotoxicity by staining with fluorescein diacetate/ethidium bromide; assay type: cell-based; details: 0 to 46 μM
Method: (§1) Bars represent the mean±S.E.M. of at least three independent experiments done in triplicate and calculated as multiplicity of counts in the tested sample over the control sample. SA peptide within the concentration range used (0 to 46 μM) was not cytotoxic as determined by staining with fluorescein diacetate/ethidium bromide. ^20

NIH 3T3 cells [4] = assay: Indirect immunofluorescence assay of peptide import into NIH 3T3 cells; assay type: cell-based
From the text: A 26-residue peptide (referred to as SM, listed herein as SEQ ID NO:1) that contained the predicted signal sequence of Kaposi fibroblast growth factor ^16-17 (K-FGF) was chemically synthesized. An indirect immunofluorescence assay using antibody against epitope tag-containing SM peptide was employed to follow translocation of the SM peptide to the intracellular compartments of NIH 3T3 cells. A polyclonal anti-SM peptide antibody against the SM peptide-keyhole limpet haemocyanin conjugate (Pierce) was raised in rabbits and reacted with SM peptide in ELISA (titer>1:30,000). The intracellular SM peptide was detected by an indirect imrnmunofluorescence assay using affinity-purified anti-SM peptide IgG and rhodamine-labeled anti-rabbit antibody (Kirkegaard & Perry). Briefly, confluent NIH 373 cells on the chamber slides (Nunc) were treated with either 0.5 ml SM peptide solution (100 μg ml^−1) in DMEM containing 10% FBS or with 0.5 ml DMEM containing 10% FBS only for 30 minutes at 37° C. The cells were fixed with 3.5% paraformaldehyde solution in PBS followed by 0.25% Triton X-100 in PBS and then treated with 1:20 anti-SM peptide IgG in PBS containing 0.5% bovine serum albumin (BSA) for 1.5 h. The intracellular SM peptide-antibody complexes were visualized by subsequent incubation with a rhodamine-labeled anti-rabbit polyclonal antibody for 1 h. In control systems, anti-SM peptide antibody was preabsorbed with the SM peptide. Intracellular localization of the SAα peptide was detected by immunofluorescence assay using affinity-purified anti-SM peptide IgG as described above for SM peptide. […] A ten-step z-position sectional scanning of the SM peptide-treated cells by the confocal laser scanning microscopy (CLSM) affirmed that these deposits were intracellular. […] Likewise, cells not exposed to SM peptide or cells exposed to SM peptide followed by the secondary antibody alone were negative. If cells were fixed with paraformaldehyde before peptide treatment, the cellular import of SM peptide was prevented.
To determine the rate of SM peptide import across cell membranes, a kinetic experiment was carried out with the SM peptide-treated NIH 3T3 cells. NIH 3T3 cells were treated at 37° C. with 0.5 ml SM peptide at 100 μg mL^−1 in DMEM containing 10% FBS for 1, 5, 15, 30, 60 and 120 minutes. Intracellular SM peptide deposits were detected by indirect immunofluorescence assay as described above. […] The 30-minute time point was therefore selected to determine the optimal peptide concentrations for detectable import.
To determine the optimal peptide concentration, NIH 3T3 cells were treated for 30 minutes at 37° C. with 0.5 ml SM peptide solution in DMEM containing 10% FBS at the following concentrations: 0, 2, 10, 50, 100, and 150 μg ml^−1. Intracellular localization of the SM peptide was detected by indirect immunofluorescence assay as described above. […] The cellular import was concentration-dependent and reached a plateau between 50 μg/ml and 100 μg/ml.
Transport of the SM peptide across the cell membrane was temperature-dependent. […] Accordingly, cellular import of the SM peptide resumed when the incubation temperature shifted from 4° C. to 37° C.
The intracellular SA peptide could not be tracked by an immunofluorescence assay because it was not recognized by the available anti-SM peptide antibody. However, attaching two extra amino acid residues (Met-Pro) to the carboxyl terminus of the SA peptide produced a modified SA peptide (referred to as SAα, listed herein as SEQ ID NO:4) that contained a 3-amino acid epitope tag, Leu-Met-Pro, recognized by anti-SM peptide antibody in ELISA. […] Like SA peptide, SAα peptide was mitogenic in the thymidine incorporation assay.

NIH 3T3 cells [5] = assay: [3H]thymidine incorporation (mitogenic response) of NIH 3T3 cells; assay type: cell-based; details: comparable concentration ranges
Method: A 26-residue hybrid peptide (referred to as SA, listed herein as SEQ ID NO:3) was designed and synthesized. […] Thus, the SA peptide differs from the SM peptide only in its 7-residue carboxyl terminal “cargo” region. A functional assay was performed in which SA peptide was able to induce a mitogenic response of NIH 3T3 cells measured by [^3H]thymidine incorporation in a manner similar to aFGF bearing, the same NLS. ^18
In this functional assay, confluent 3T3 cells grown initially in DMEM containing 10% FBS were transferred to a low serum medium (DMEM containing 0.5% FBS) for 2 days. The test peptides, either SA peptide, SAα pep-tide, ANL peptide, or SM peptide, or aFGF, were added to a fresh low serum medium at the indicated concentrations at 37° C. After 16 hours, [^3H]thymidine was added and 4 hours later, the cells were washed with PBS, treated with trichloroacetic acid, solubilized with 0.15 M NaOH, and the radioactivity was determined in a liquid scintillation counter.
as §1

NIH 3T3 cells [6] = assay: Import of 125I-labeled peptide into NIH 3T3 cells (cell-associated radioactivity; ATP depletion, protease treatment); assay type: cell-based; details: for Counts in cells: 15 ng, 30 min; for Counts in cell lysates / Counts in supernatants: 5 min
From the text: Intracellular localization of the membrane-permeable peptide was also shown by treatment of cells with proteases following peptide import. For this experiment, 41-residue peptide (referred to as SEP and listed herein as SEQ ID NO:6) that contained the same hydrophobic sequence as SM peptide followed by the sequence of K-FGF(129-153) was designed and synthesized. The latter was present in KP peptide not containing hydrophobic sequence that served as the control for the membrane-permeable SKP peptide. […] The intracellular ^125I-SKP peptide was resistant to the action of proteases.
Both SKP and KP peptides were radiolabeled with ^125I by the lodogen method (Pierce). The specific activities of both peptides were similar (2.5×10^4 cpm/ng). NIH 3T3 cells were subcultured on a 60-mm dish and incubated at 37° C. for 3 days. The confluent monolayers (1.6×10^6 cells) on each dish were then washed twice with PBS and treated with 15 ng of ^125I-SKP or ^125I-KP peptide at 37° C., for the indicated time. The cells were washed eight times with PBS and twice with 2 M NaCl buffer (pH 7.5) until no radioactivity could be detected in the washings. The washed cells were lysed in lysis buffer (10 mM Tris-HCl, pH 7.0, 0.1 mM EDTA, 1 mM phenylmethylsulphony fluoride, 1 mM dithiothreitol, and 1% Triton X-100) and the radioactivity in the cell lysates was counted in a Packard auto-gamma counter. In some experiments, the washed cells were further treated with pronase (1 mg/ml) or trypsin (0.05%) solution in DMEM for 5 min at 37° C. The supernatants and cells were separated and their radioactivities were counted separately. For ATP depletion assay, cells were incubated with 5 μglml antimycin, 6.5 mM 2-deoxyglucose, and 10 mM glucono-δ-lactone in DMEM for 2 h at 37° C. before addition of ^125I-SKP peptide. The levels of ATP in ATP-depleted cells and normal cells were determined by ATP bioluminescent assay kit (Sigma).
For ATP depletion assay, confluent NIH 3T3 cells (1.6×10^6 cells) in each dish were treated with or without ATP depleting reagents (antimycin, 2deoxyglucose, and glucono-δ-lactone) for 2 h at 37° C. Cells were then treated with 15 ng of ^125I-SKP peptide for 30 min at 37° C. After complete removal of extracellular^125I-labeled peptides, the radioactivity in the cell lysates was counted. For the assay using proteases, cells were treated with ^125 I-SKP peptide and washed as described above. The ^125I-SKF peptide-associated cells were then treated with pronase (1 mg/ml), trypsin (0.05%), or diluent for 5 min at 37° C. The radio-activities in the cell lysates and supernatants were counted separately. Data in Table 1 represent the mean the mean ±SEM of triplicate determinations of a single experiment. The experiment was repeated three times with similar results.

[7] = test system: baby hamster kidney-21 cells; assay: Indirect immunofluorescence assay of SM peptide import, baby hamster kidney-21 cells; assay type: cell-based
[8] = test system: human umbilical vein endothelial cells; assay: Indirect immunofluorescence assay of SM peptide import, HUVEC; assay type: cell-based
NF-κB [9] = assay type: cell-based

## SN50 peptide: 26-residue peptide: K-FGF signal sequence (residues 1-16) and NLS of NF-kB p50 subunit (residues 17-26) (AAVALLPAVLLALLAPVNRKRNKLMP)
[1]
  Intracellular distribution compared to intracellular SM peptide: more nuclear staining pattern
NF-κB [2]
  Nuclear import of NF-κB induced by LPS: blocked
rabbits
  Localized skin inflammatory reaction (Evans' Blue area): greatly diminished area of blue discoloration
NF-κB complex; LPS 10 ng/ml (Example II)
  Inducible nuclear import of NF-κB, LPS: inhibited
NF-κB complex; LPS 10 ng/ml (Example III)
  Inducible nuclear import of NF-κB, LPS: inhibited
NF-κB complex; TNFα 20 U/ml (Example III)
  Inducible nuclear import of NF-κB, TNFα: inhibited
NF-κB complex; TNFα 100 U/ml (Example II)
  Inducible nuclear import of NF-κB, TNFα: inhibited

## AAVALLPAVLLALLAPAAANYKKPKL [SA peptide]
NIH 3T3 cells [3]
  Cytotoxicity: not cytotoxic

## SAα peptide: SA peptide with two extra residues (Met-Pro) at the carboxyl terminus (AAVALLPAVLLALLAPAAANYKKPKLMP; 1..16 Note/label = a (“Signal peptide amino acid sequence of K-FGF”))
NIH 3T3 cells [4]; SAα-treated NIH 3T3 cells
  Intracellular peptide staining with anti-SM peptide antibody: punctate staining pattern
NIH 3T3 cells [5]
  Mitogenic activity in thymidine incorporation assay: mitogenic

## Asn-Tyr-Lys-Lys-Pro-Lys-Leu (NYKKPKL) (1..7 Note/label = a (“Nuclear localization sequence of aFGF”)) [ANL peptide, 7-residue peptide representing the NLS of aFGF, reference compound]
NIH 3T3 cells [5]
  Mitogenic activity in thymidine incorporation assay: Neither control peptide showed any significant mitogenic activity

## SKP peptide: 41-residue peptide: same hydrophobic sequence as SM peptide followed by K-FGF(129-153); tested 125I-radiolabeled (AAVALLPAVLLALLAPEILLPNNYNAYESYKYPGMFIALSK; also: 125I radiolabel, site not given here)
NIH 3T3 cells [6]; 15 ng 125I-peptide, 37° C.
  Radioactivity detected in peptide-treated cells: Substantial radioactivity was detected
NIH 3T3 cells [6]; ATP-depleted cells, 37° C.
  Counts in cells: 22,266 ± 3,602 cpm/1.6 × −10′ cells
NIH 3T3 cells [6]; no protease (diluent), 37° C.
  Counts in cell lysates: 21,323 ± 853
  Counts in supernatants: 2,966 ± 838
NIH 3T3 cells [6]; pronase 1 mg/ml, 37° C.
  Counts in cell lysates: 21,791 ± 1,953
  Counts in supernatants: 1,979 ± 75
NIH 3T3 cells [6]; pronase or trypsin
  Loss of cell-associated radioactivity after protease treatment: no significant loss of cell-associated radioactivity was observed
NIH 3T3 cells [6]; trypsin 0.05%, 37° C.
  Counts in supernatants: 655 ± 70
NIH 3T3 cells [6]; untreated (ATP-positive) cells, 37° C.
  Counts in cells: 20,189 ± 2,109 cpm/1.6 × −10′ cells

## SM peptide: 26-residue peptide: K-FGF signal sequence, spacer, epitope tag; mutated, loss-of-function NLS; cell-permeable control (AAVALLPAVLLALLAPAAADQNQLMP; 1..16 Note/label = a (“Signal peptide amino acid sequence of K-FGF”))
NIH 3T3 cells [4]; 100 μg/mL, 37° C.
  Time at which intracellular staining plateaued: about 30 minutes
  Time at which intracellular staining was first observed: ≤ 5 min
NIH 3T3 cells [4]; 100 μg/ml, 30 minutes, 4° C.
  Immunofluorescence staining at 4° C.: No immunofluorescence staining was observed
NIH 3T3 cells [4]; 100 μg/ml, 30 minutes, 22° C. or 37° C.
  Immunofluorescence staining at 22° C. or 37° C.: numerous punctate deposits
NIH 3T3 cells [4]; 100 μg/ml, 30 minutes, 37° C.
  Intracellular peptide deposits by indirect immunofluorescence: intracellular deposits were observed in almost all cells
NIH 3T3 cells [4]; 30 minutes, 37° C.
  Concentration giving detectable intracellular peptide: 2 µg/mL
  Concentration giving detectable intracellular peptide (molar): about 800 nM
NIH 3T3 cells [4]; cells fixed before treatment
  Cellular import in cells fixed with paraformaldehyde before peptide treatment: prevented
[7]
  Intracellular localization by indirect immunofluorescence: the same results as with NIH 3T3 cells
[8]
  Intracellular localization by indirect immunofluorescence: the same results as with NIH 3T3 cells
[1]
  Intracellular localization by indirect immunofluorescence: the same results as with NIH 3T3 cells
NIH 3T3 cells [5]
  Mitogenic activity in thymidine incorporation assay: Neither control peptide showed any significant mitogenic activity

## cSN50 peptide: cyclic peptide designed by inserting two cysteines flanking the NLS motif of SN50 (AAVALALLPAVLLALLAPCYVQRKRQKLMPC; disulfide 19-31 (inferred))
NF-κB [9]
  SEB-induced NF-κB nuclear import: increasing inhibition of SEB-induced NF-κB nuclear import
NF-κB complex; cSN50 versus SN50
  Potency relative to the prototypical SN50 peptide (phosphoimager analysis): 3-10 times
